Assay results published in the supplement of paper PMC3974653.
Structures can show the parent of a compound that is named as a salt.

Test system: MTT (mouse pheochromocytoma)
Assay: IC50 of cell viability (ATP content)
Conditions: (24 or 48 h)
In short: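 MTT mouse pheochromocytoma cells were seeded into white 1536-well plates at 5 µl per well from a 200,000 cells/ml suspension in DMEM with 5% FBS and 1% horse serum, then cultured overnight at 37°C, 5% CO2. A pintool added 23 nl of library compound in DMSO at 8 concentrations (final 0.5 nM to 46 µM) for 24 or 48 hrs, and CellTiter-Glo ATP luminescence was read after 15 minutes. Signals were scaled so that positive-control wells equalled 100% and DMSO wells 0%. IC50 values were derived by fitting a four-parameter logistic curve.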

| IC50 of cell viability [µM] | Compound |
| --- | --- |
| > 46 | C=C[C@H]1CN2CCC1C[C@H]2[C@H](O)c1ccnc2ccc(OC)cc12 (stereo partly drawn) [QUININE ASCORBATE] |
| > 46 | OC(CCN1CCCCC1)(c1ccccc1)C1CC2C=CC1C2 (stereo not drawn) [Biperiden] |
| > 46 | CC(C)n1c(/C=C/[C@H](O)C[C@H](O)CC(=O)[O-])c(-c2ccc(F)cc2)c2ccccc21 [Fluvastatina] |
| > 46 | COc1ccc(C(Cl)=C(c2ccc(OC)cc2)c2ccc(OC)cc2)cc1 [Chlorotrianisene] |
| > 46 | C[C@@H]1CC2C3CCC4=CC(=O)C=C[C@]4(C)[C@@]3(F)[C@@H](O)C[C@]2(C)[C@@]1(O)C(=O)COC(=O)c1cccc(S(=O)(=O)[O-])c1 (stereo partly drawn) [DEXAMETHASONE METASULFOBENZOATE SODIUM] |
| > 46 | N=C(N)NC[C@@H]1COC2(CCCCC2)O1 [Guanadrel sulfate] |
| > 46 | O=C1/C(=C2/Nc3ccc(S(=O)(=O)[O-])cc3C2=O)Nc2ccc(S(=O)(=O)[O-])cc21 [Indigo carmine] |
| > 46 | CC(=O)OCC(CCn1cnc2cnc(N)nc21)COC(C)=O [FAMCICLOVIR] |
| > 46 | O=C1NC(=O)[C@@]2(CCOc3ccc(F)cc32)N1 [Sorbinil] |
| > 46 | CCCCCCCC(=O)CC[C@H]1[C@@H](C/C=C/CCCC(=O)OC(C)C)[C@@H](O)C[C@H]1O [Unoprostone Isopropyl Ester] |
| > 46 | COc1ncnc(N[S+](=O)([O-])c2ccc(N)cc2)c1OC [Sulfadoxine] |
| > 46 | NC(=O)c1ccc([N+](=O)[O-])cc1Cl [AKLOMIDE] |
| > 46 | CCc1cc([S+](=O)([O-])[O][Na])c2cc(C(C)C)cccc1-2 [EGUALEN SODIUM] |
| > 46 | N#Cc1c(N(CC(=O)[O-])CC(=O)[O-])sc(C(=O)[O-])c1CC(=O)[O-].O.O.O.O.O.O.O.[Sr+2].[Sr+2] [STRONTIUM RANELATE] |
| > 46 | CC(C)[C@@H](N)C(=O)O [VALINE] |
| > 46 | CCCCC(=O)OCC(=O)[C@H]1[C@H](C)C[C@@H]2[C@@H]3C[C@@H](F)C4=CC(=O)C=C[C@]4(C)[C@@]3(F)[C@@H](O)C[C@@]21C [DIFLUCORTOLONE VALERATE] |
| > 46 | CN1C(=O)CC[C@H]1c1cccnc1 [(-)-COTININE] |
| > 46 | CCOC(=O)\C1=C\[C@]2(CC)CCCN3CCC4=C([C@H]23)[N]1C5=C4C=CC=C5 [VINPOCETINE] |
| > 46 | COC(=O)C(c1ccccc1Cl)N1CCc2sccc2C1 (stereo not drawn) [CLOPIDOGREL BISULFATE] |
| > 46 | CC(=O)O[C@H](C)OC(=O)[C@@H](C)c1ccc(-c2ccccc2)c(F)c1 [Ropiopn] |
| > 46 | O=C(O)CC(O)CC(O)/C=C/c1c(C2CC2)nc2ccccc2c1-c1ccc(F)cc1 (stereo not drawn) [Pitavastatin] |

| IC50 of cell viability [µM] | Compound |
| --- | --- |
| > 46 | C[C@@H]1CN(c2c(F)c(F)c3c(=O)c(C(=O)O)cn(C4CC4)c3c2F)C[C@H](C)N1 [Orbifloxacin] |
| > 46 | C\C1=C(\OC2=C(C=CC=C2C(=O)OCCN3CCCCC3)C1=O)C4=CC=CC=C4 [Flavoxate hydrochloride] |
| > 46 | O=C(O)C1/C(=C/CO)OC2CC(=O)N21.[Li] (stereo not drawn) [CLAVULANATE LITHIUM] |
| > 46 | O=C(O)[C@H]1C[C@@H](CP(=O)(O)O)CCN1 |
| > 46 | O=C(O)C(O)[C@@H](O)[C@H](O)C(=O)CO (stereo in doubt) [D-XYLO-5-HEXULOSONIC ACID, CALCIUM SALT] |
| > 46 | Cc1c(Cn2ccnc2)c2ccccc2n1CCC(=O)O [Dazmegrel] |
| > 46 | O=C1CC[C@@H](C(=O)O)N1 [PYRROLIDONE CARBOXYLIC ACID] |
| > 46 | CCOC(=O)C(CCc1ccccc1)NC1CSC(c2cccs2)CN(CC(=O)O)C1=O (stereo not drawn) [TEMOCAPRIL HYDROCHLORIDE] |
| > 46 | CC12C=CC(=O)C=C1[C@@H](F)CC1C2C(O)CC2(C)C1CC[C@]2(O)C(=O)CO (stereo partly drawn) [FLUPREDNISOLONE] |
| > 46 | OCc1cccnc1 [3-Pyridinemethanol] |
| > 46 | CC1CCN(CCCC(=O)c2ccc(F)cc2)CC1 [MELPERONUM] |
| > 46 | CCCCc1oc2ccccc2c1C(=O)c1cc(I)c(OCCN(CC)CC)c(I)c1 [AMIODARONE] |
| > 46 | CC(=O)C[C@H](C1=CC=C(C=C1)[N+]([O-])=O)\C2=C(/O)C3=C(OC2=O)C=CC=C3 [Acenocoumarol] |
| > 46 | Clc1ccccc1CN1CCc2sccc2C1 [TICLOPIDINE] |
| > 46 | CCN1\C=C(\C(O)=O)C(=O)C2=C1C=C(N3CCNCC3)C(=C2)F [Norfloxacin] |
| > 46 | CCOc1ccccc1OC(c1ccccc1)C1CNCCO1 (stereo not drawn) [Reboxetine mesylate] |
| > 46 | CC(c1ncncc1F)[C@](O)(Cn1cncn1)c1ccc(F)cc1F (stereo partly drawn) [Voriconazole] |
| > 46 | Cc1cnc(NC(=O)C2C(=O)c3ccccc3[S+](=O)([O-])N2C)s1 (stereo not drawn) [Meloxicam] |
| > 46 | FC(F)(F)C(Cl)Br (stereo not drawn) [Halothane] |
| > 46 | OC\1=C(O)\C(=O)\C(=C(O)/C1=O)O [TETROQUINONE] |
| > 46 | C=CC[N+]1([C@H]2C[C@H]3[C@@H]4CC[C@H]5C[C@H](OC(C)=O)[C@@H](N6CCCCC6)C[C@]5(C)[C@H]4CC[C@]3(C)[C@H]2OC(=O)CC)CCCCC1 [RAPACURONIUM BROMIDE] |

| Compound | IC50 of cell viability [µM] |
| --- | --- |
| CC(C)=CCOC1=C2OC(=O)\C=C/C2=CC3=C1OC=C3 [IMPERATORIN] | > 46 |
| CN1CCC(O)(c2ccc(F)cc2)C(C(=O)c2ccc(F)cc2)C1 (stereo not drawn) [Flazalone] | > 46 |
| O=C(NC(O)C(Cl)(Cl)Cl)NC(O)C(Cl)(Cl)Cl (stereo not drawn) [Dicloralurea] | > 46 |
| CC(N)Cc1ccc2c(c1)OCO2 (racemic) [(±)-3,4-Methylenedioxyamphetamine hydrochloride] | > 46 |
| CCCCCC(C)N.O=[S+]([O-])(O)O (stereo not drawn) [TUAMINOHEPTANE SULFATE] | > 46 |
| CCN(Cc1ccc(Cl)nc1)/C(=C/[N+](=O)[O-])NC [NITENPYRAM] | > 46 |
| CC[n+]1c(-c2ccccc2)c2cc(N)ccc2c2ccc(N)cc21 [Ethidium bromide] | > 46 |
| CCCN(CCC)CCc1c[nH]c2ccccc12 [N,N-Dipropyltryptamine] | > 46 |
| CC(C)=CCN1CC[C@@]2(C)c3cc(O)ccc3C[C@H]1[C@@H]2C [(+)-Pentazocine] | > 46 |
| O=C(Nc1ccccc1-c1ccc(Cl)cc1)c1cccnc1Cl [Boscalid] | > 46 |
| CCN(CCO)CCn1c(Cc2ccccc2)nc2c1c(=O)n(C)c(=O)n2C [Bamifylline Hydrochloride] | > 46 |
